Test results: ChEMBL document CHEMBL3044621, “1-(7-Chloroquinolin-4-yl)-2-[(1H-pyrrol-2-yl)methylene]hydrazine: a potent compound against cancer” (Med Chem Res, 2012)
≈ marks a conversion by molar mass, not a printed value.

Assays:
[1] = tested on: HCT-8; assay: Cytotoxicity against Homo sapiens (human) HCT8 cells assessed as growth inhibition at 25 ug/ml after 72 hr by MTT assay; assay type: functional; settings: HCT-8, 72 h, read-out: GI
[2] = tested on: MDA-MB-435; assay: Cytotoxicity against Homo sapiens (human) MDA-MB-435 cells assessed as growth inhibition at 25 ug/ml after 72 hr by MTT assay; assay type: functional; settings: MDA-MB-435, 72 h, read-out: GI
[3] = tested on: SF-295; assay: Cytotoxicity against Homo sapiens (human) SF295 cells assessed as growth inhibition at 25 ug/ml after 72 hr by MTT assay; assay type: functional; settings: SF-295, 72 h, read-out: GI
[4] = tested on: MDA-MB-435; assay: Cytotoxicity against Homo sapiens (human) MDA-MB-435 cells after 72 hr by MTT assay; assay type: functional, cell-based; settings: MDA-MB-435, 72 h
[5] = tested on: MDA-MB-435; assay: Ratio of doxorubicin IC50 to compound IC50 for Homo sapiens (human) MDA-MB-435 cells; assay type: functional
[6] = tested on: HL-60; assay: Cytotoxicity against Homo sapiens (human) HL60 cells after 72 hr by MTT assay; assay type: functional, cell-based; settings: HL-60, 72 h
[7] = tested on: HCT-8; assay: Cytotoxicity against Homo sapiens (human) HCT8 cells after 72 hr by MTT assay; assay type: functional, cell-based; settings: HCT-8, 72 h
[8] = tested on: SF-295; assay: Cytotoxicity against Homo sapiens (human) SF295 cells after 72 hr by MTT assay; assay type: functional, cell-based; settings: SF-295, 72 h

Row | Compound | inhibition of growth at 25 µg/mL [1] | inhibition of growth at 25 µg/mL [2] | inhibition of growth at 25 µg/mL [3] | IC50 [4] | Ratio IC50 [5] | IC50 [6] | IC50 [7] | IC50 [8]
1 | O=[N+]([O-])c1ccc(/C=N/Nc2ccnc3cc(Cl)ccc23)o1 | 24.1% | 38% | 7.53% | – | – | – | – | –
2 | O=[N+]([O-])c1ccc(/C=N/Nc2ccnc3cc(Cl)ccc23)s1 | 49% | 42.1% | 33.4% | – | – | – | – | –
3 | Clc1ccc2c(N/N=C/c3ccc[nH]3)ccnc2c1 | 100% | 100% | 100% | 0.117 µg/mL (≈ 0.431 µM) | 4 | 0.0952 µg/mL (≈ 0.352 µM) | 0.441 µg/mL (≈ 1.63 µM) | 0.527 µg/mL (≈ 1.95 µM)
4 | Clc1ccc2c(N/N=C/c3ncc[nH]3)ccnc2c1 | 34% | 82.6% | 30.2% | – | – | – | – | –
5 | Clc1ccc2c(N/N=C/c3ccco3)ccnc2c1 | 53.2% | 68.5% | 61.9% | – | – | – | – | –
6 | Clc1ccc2c(N/N=C/c3cccs3)ccnc2c1 | 21.1% | 21.6% | 1.03% | – | – | – | – | –
7 | COc1cccc2c1C(=O)c1c(O)c3c(c(O)c1C2=O)C[C@@](O)(C(=O)CO)C[C@@H]3O[C@H]1C[C@H](N)[C@H](O)[C@H](C)O1 [DOXORUBICIN] | – | – | – | – | – | – | 0.01 µg/mL (≈ 0.0184 µM) | –
